# US9796753B2, “N-substituted indenoisoquinolines and syntheses thereof” (Purdue Research Foundation, priority 2005, dated 2017)
# Where two headings read alike, the source gives them in different places.
# Key:
# Format in all cases: cell-based
# [1] = test system: all human cancer cell lines successfully tested; experiment: NCI screen mean graph midpoint (MGM) for growth inhibition
# Procedure: COMPARE screening. The compounds described herein were examined for antiproliferative activity against the human cancer cell lines in the National Cancer Institute screen (COMPARE screening), in which the activity of each compound was evaluated with approximately 55 different cancer cell lines of diverse tumor origins. […] Therefore, the MGM value represents an overall assessment of toxicity of the compound across numerous cell lines.
# (§1) Selected compounds were tested for antiproliferative activity in the National Cancer Institute's developmental therapeutics assay 60 cell line screen (NCI60). The cells were incubated with the tested compounds at 100, 10, 1, 0.1, and 0.01 μM concentrations for 48 h before treatment with sulforhodamine B dye. Optical densities were recorded, and their ratios relative to that of the control were plotted as percentage growth against the log 10 of the tested compound concentrations.
# The cytotoxicities of the compounds to cultured cancer cells were measured in the National Cancer Institute's 60 cell line assay (a.k.a. NCI-60).
# [2] = test system: melanoma UACC-62; experiment: COMPARE screening (NCI human cancer cell line screen), cytotoxicity GI50
# Procedure: as §1
# [3] = test system: colon HCT-116; experiment: as above
# Procedure: as §1
# [4] = test system: lung HOP-62; experiment: as above
# Procedure: as §1
# [5] = test system: ovarian OVCAR-3; experiment: as above
# Procedure: as §1
# [6] = test system: renal SN12C; experiment: as above
# Procedure: as §1
# [7] = test system: prostate DU-145; experiment: as above
# Procedure: as §1
# [8] = test system: breast MDA-MB-435; experiment: as above
# [9] = test system: CNS SF-539; experiment: as above
# Procedure: as §1
# [10] = Table 1, average GI50 of all cell lines tested (approximately 55), test range 10^−8 to 10^−4 molar
# [11] = Homo sapiens, UACC-62, read-out: cytotoxicity (GI50) melanoma UACC-62
# [12] = Homo sapiens, HCT-116, read-out: cytotoxicity (GI50) colon HCT-116
# [13] = Homo sapiens, HOP-62, read-out: cytotoxicity (GI50) lung HOP-62
# [14] = Homo sapiens, OVCAR-3, read-out: cytotoxicity (GI50) ovarian OVCAR-3
# [15] = Homo sapiens, SN12C, read-out: cytotoxicity (GI50) renal SN12C
# [16] = Homo sapiens, DU-145, read-out: cytotoxicity (GI50) prostate DU-145
# [17] = Homo sapiens, MDA-MB-435, read-out: cytotoxicity (GI50) breast MDA-MB-435
# [18] = all human cancer cell lines successfully tested
# [19] = Homo sapiens, CNSSF-539, read-out: cytotoxicity (GI50) CNS SF-539
Structure (SMILES),"MGM (mean GI50 across cell lines) [1, 10]",GI50 [2],GI50 [3],GI50 [5],GI50 [6],GI50 [7],GI50 [9],GI50 [8],GI50 [4],also measured
COc1cc2c3c(n(CCCn4ccnc4)c(=O)c2cc1OC)-c1cc2c(cc1C3=O)OCO2.Cl [Compound 5l],–,–,–,–,–,–,–,–,–,"MGM (mean graph midpoint for growth inhibition) [1, 10]: 0.079 ± 0.023 µM"
"O=C1c2ccccc2-c2c1c1ccc([N+](=O)[O-])cc1c(=O)n2CCN1CCOCC1 [Compound 5i, 5,6-Dihydro-6-(2-morpholin-4-yl-1-ethyl)-3-nitro-5,11-dioxo-11H-indeno[1,2-c]isoquinoline]",74.1 µM,–,–,–,–,–,–,–,–,"GI50 [2, 11]: 83.2 µM; GI50 [3, 12]: > 100 µM; GI50 [4, 13]: 52.5 µM; GI50 [5, 14]: > 100 µM; GI50 [6, 15]: 58.9 µM; GI50 [7, 16]: 61.7 µM; GI50 [8, 17]: > 100 µM"
COc1cc2c3c(n(CCCN(C)C)c(=O)c2cc1OC)-c1ccccc1C3=O [Compound 5a],6.17 µM,6.61 µM,2.45 µM,5.89 µM,11 µM,4.47 µM,6.17 µM,7.08 µM,–,–
Cl.O=C1c2ccccc2-c2c1c1ccccc1c(=O)n2CCCNCCO [Compound 5bo],0.339 µM,0.178 µM,–,0.55 µM,0.269 µM,0.174 µM,0.55 µM,0.49 µM,0.195 µM,–
[N-]=[N+]=NCCCn1c2c(c3ccccc3c1=O)C(=O)c1ccccc1-2 [Compound 5bh],12.3 µM,19.5 µM,4.9 µM,7.94 µM,25.1 µM,29.5 µM,–,7.76 µM,7.59 µM,–
COc1ccc2c(c1)C(=O)c1c-2n(CCCN2CCOCC2)c(=O)c2cc([N+](=O)[O-])ccc12 [Compound 5bj],–,< 0.01 µM,< 0.01 µM,< 0.01 µM,< 0.01 µM,–,–,< 0.01 µM,< 0.01 µM,"MGM (mean graph midpoint for growth inhibition) [1, 10]: 0.014 ± 0.001 µM"
COc1ccc2c(c1)C(=O)c1c-2n(CCCI)c(=O)c2cc([N+](=O)[O-])ccc12 [Compound 5bd],–,0.148 µM,0.046 µM,3.02 µM,0.309 µM,0.034 µM,0.058 µM,1.48 µM,–,"MGM (mean graph midpoint for growth inhibition) [1, 10]: 0.328 ± 0.046 µM"
"O=C(O)C(F)(F)F.O=C(O)C(F)(F)F.O=C1c2ccccc2-c2c1c1ccccc1c(=O)n2CCNCCNCCn1c2c(c3ccccc3c1=O)C(=O)c1ccccc1-2 [Compound 14c, Bis-1,2-{(5,6-dihydro-5,11-diketo-11H-indeno[1,2-c]isoquinoline)-6-ethylamino}ethane Bis(trifluoroacetate)]",–,0.331 µM,0.029 µM,1.66 µM,0.178 µM,0.182 µM,–,1.66 µM,0.032 µM,"MGM (mean graph midpoint for growth inhibition) [1, 18]: 0.427 ± 0.01 µM"
"Cl.O=C1c2ccccc2-c2c1c1ccccc1c(=O)n2CCc1ccccn1 [Compound 5ay, 5,6-Dihydro-5,11-dioxo-6-(2-pyridylethyl)-11H-indeno[1,2-c]isoquinoline Hydrochloride]",53.7 µM,–,–,–,–,–,–,–,–,"GI50 [2, 11]: 27.5 µM; GI50 [4, 13]: 21.4 µM; GI50 [5, 14]: > 100 µM; GI50 [6, 15]: 77.6 µM; GI50 [7, 16]: 74.1 µM; GI50 [9, 19]: 17.4 µM; GI50 [8, 17]: 5.13 µM"
"COc1cc2c3c(n(CCCN(CCCN(CCCn4c5c(c6ccccc6c4=O)C(=O)c4ccccc4-5)C(=O)OC(C)(C)C)C(=O)OC(C)(C)C)c(=O)c2cc1OC)-c1cc2c(cc1C3=O)OCO2 [Compound 16a, 1,3-{6-(3-tert-Butyloxycarbonylamino-1-propyl)-5,6-dihydro-2,3-dimethoxy-8,9-methylenedioxy-5,11-dioxo-11H-indeno[1,2-c]isoquinoline}-{5′,6′-dihydro-6′-[(3′-tert-butyloxycarbonylamino)-1′-propyl]-5′,11′-dioxo-11′H-indeno[1,2-c]isoquinoline}propane]",–,> 100 µM,> 100 µM,–,> 100 µM,–,–,> 100 µM,> 100 µM,"MGM (mean GI50 across cell lines) [1, 18]: 68.0 µM"
O=C1c2ccccc2-c2c1c1ccccc1c(=O)n2CCCn1ccnc1 [Compound 5g],1.86 µM,0.79 µM,1.41 µM,1.66 µM,1.66 µM,1.41 µM,2.34 µM,–,–,–
"CC(C)(C)OC(=O)NCCCCCCCn1c2c(c3ccccc3c1=O)C(=O)c1ccccc1-2 [Compound 5af, 6-(7′-tert-BOC-Aminoheptyl)-5,6-dihydro-5,11-dioxo-11H-indeno[1,2-c]isoquinoline]",30.9 µM,20 µM,17.4 µM,33.9 µM,74.1 µM,31.6 µM,20.9 µM,81.3 µM,–,–
"CC(C)(C)OC(=O)NCCCCCCCCCn1c2c(c3ccccc3c1=O)C(=O)c1ccccc1-2 [Compound 5ah, 6-(9′-tert-BOC-Aminononyl)-5,6-dihydro-5,11-dioxo-11H-indeno[1,2-c]isoquinoline]",50.1 µM,17.4 µM,–,28.8 µM,77.6 µM,> 100 µM,17.8 µM,> 100 µM,24.5 µM,–
CN(C)CCCn1c2c(c3ccccc3c1=O)C(=O)c1ccccc1-2 [Compound 5d],–,0.51 µM,0.58 µM,1.7 µM,0.91 µM,1.32 µM,–,2.82 µM,–,–
CN(C)CCCn1c2c(c3ccc([N+](=O)[O-])cc3c1=O)C(=O)c1ccccc1-2 [Compound 5c],9.77 µM,7.08 µM,6.46 µM,25.7 µM,4.17 µM,–,–,> 100 µM,–,–
"O=C1c2ccccc2-c2c1c1ccc([N+](=O)[O-])cc1c(=O)n2CCCBr [Compound 5bb, 6-(3-Bromopropyl)-5,6-dihydro-5,11-dioxo-3-nitro-11H-indeno[1,2-c]isoquinoline]",40.0 µM,–,–,–,–,–,–,–,–,"GI50 [2, 11]: > 100 µM; GI50 [3, 12]: 3.47 µM; GI50 [5, 14]: > 100 µM; GI50 [6, 15]: > 100 µM; GI50 [7, 16]: > 100 µM; GI50 [9, 19]: > 100 µM; GI50 [8, 17]: > 100 µM"
"O=C(O)C(F)(F)F.O=C(O)C(F)(F)F.O=C1c2ccccc2-c2c1c1ccccc1c(=O)n2CCCNCCNCCCn1c2c(c3ccccc3c1=O)C(=O)c1ccccc1-2 [Compound 14e, Bis-1,2-{(5,6-dihydro-5,11-diketo-11H-indeno[1,2-c]isoquinoline)-6-propylamino}ethane Bis(trifluoroacetate)]",–,0.052 µM,< 0.01 µM,1.02 µM,< 0.01 µM,< 0.01 µM,–,0.933 µM,< 0.01 µM,"MGM (mean graph midpoint for growth inhibition) [1, 18]: 0.152 ± 0.062 µM"
"CN(CCCn1c2c(c3ccccc3c1=O)C(=O)c1ccccc1-2)CCCn1c2c(c3ccccc3c1=O)C(=O)c1ccccc1-2 [Compound 12d, Bis{(5,6-dihydro-5,11-diketo-11H-indeno[1,2-c]isoquinoline)-6-propyl}methylamine]",–,–,–,–,–,–,–,–,–,"GI50 ([2]; melanoma UACC-62, concentration corresponding to 50% growth inhibition, read-out: cytotoxicity (GI50 in μM) melanoma UACC-62): 2 µM; GI50 ([5]; ovarian OVCAR-3, concentration corresponding to 50% growth inhibition, read-out: cytotoxicity (GI50 in μM) ovarian OVCAR-3): 1.2 µM; GI50 ([6]; renal SN12C, concentration corresponding to 50% growth inhibition, read-out: cytotoxicity (GI50 in μM) renal SN12C): 0.589 µM; GI50 ([9]; CNS SF-539, concentration corresponding to 50% growth inhibition, read-out: cytotoxicity (GI50 in μM) CNS SF-539): 1.12 µM; MGM (mean graph midpoint for growth inhibition) [1, 18]: 0.934 ± 0.476 µM; GI50 ([8]; breast MDA-MB-435, concentration corresponding to 50% growth inhibition, read-out: cytotoxicity (GI50 in μM) breast MDA-MB-435): 1.55 µM"
"Cl.O=C1c2ccccc2-c2c1c1ccccc1c(=O)n2CCCCNCCCn1c2c(c3ccccc3c1=O)C(=O)c1ccccc1-2 [Compound 14b, Bis{(5,6-dihydro-5,11-diketo-11H-indeno[1,2-c]isoquinoline)}-(6-propyl,6′-butyl)amine Hydrochloride]",–,0.513 µM,0.056 µM,0.372 µM,0.132 µM,0.288 µM,–,0.562 µM,0.028 µM,"MGM (mean graph midpoint for growth inhibition) [1, 18]: 0.357 ± 0.087 µM"
"COc1cc2c3c(oc(=O)c2cc1OC)-c1ccccc1C3=O [Compound 4a, 2,3-dimethoxybenz[d]indeno[1,2-b]pyran-5,11-dione]",–,–,–,–,–,–,–,–,–,"GI50 [2, 11]: ≥ 100 µM; GI50 [3, 12]: ≥ 100 µM; GI50 [5, 14]: ≥ 100 µM; GI50 [6, 15]: ≥ 100 µM; GI50 [7, 16]: ≥ 100 µM; GI50 [9, 19]: ≥ 100 µM; MGM (mean GI50 across cell lines) ([1]; Homo sapiens): ≥ 100 µM; GI50 [8, 17]: ≥ 100 µM"
